Legend:
[1] = test system: GDNF release by primary rat astrocytes; assay: GDNF release by primary rat astrocytes, in situ ELISA; format: cell-based; conditions: 1 μM, 5 days incubation
Description: Experimental Protocol-In Situ ELISA on Primary Astrocytes Rat Primary Culture of Astrocytes Rat mixed glial cells were cultured as described by McCarthy et al. Primary rat glial cells were prepared from the cortical of newborn Wistar rats (1 day). Briefly, meninges and blood vessels of the mice cortex were removed and placed in ice-cold medium of Leibovitz (L15; PanBiotech, ref P04-27055, batch 4511117) containing 2% Penicillin-Streptomycin (PS; PanBiotech, ref P06-07100, batch 2110917) and 1% of bovine serum albumin (BSA; […] Cells were then submitted to a supplementary incubation of 15 min. at 37° C. in presence of deoxyribonuclease I (0.1 mg/mL Panbiotech, ref: P60-37780100, batch: H140508). Cells were then pelleted (5 min. at 1200 rpm) and trypsinization was stopped by adding DMEM (PanBiotech, Ref P04-03600, Batch 8420517) supplemented with 10% FCS (Fischer, Ref 10270106, batch 41A0940K), 1 mM of Na/pyruvate (PanBiotech, ref: P04-43100, batch 3470914). Cells suspension was mechanically dissociated and filtered through […] diameter nylon meshes (BD Falcon, Ref: 352340). The cells were collected by centrifugation at 1200 rpm/min for 10 min, resuspended in culture medium and then plated in culture flasks (Dutscher, ref: 690175). Cells were seeded at a density of 1.25×10^5 cells/cm^2 and culture in 5% CO2 at 37° C. Medium was changed 3 times per week. At confluency, astrocytes were plated in 96-well Nunc MaxiSorp surface polystyrene flat-bottom immunoplate precoated with poly-D-lysine during 30 min (Sigma, Ref: […], batch: SLBS8705) and an anti-GDNF monoclonal antibody overnight at 4° C. at a density of 30,000 cells/well. […] At the end of drug treatment, cells were carefully washed with TBST (20 mM Tris-HCl (pH 7.6), 150 mM NaCl, and 0.05% (vol/vol) Tween 20). The plate was then incubated with the polyclonal anti-human GDNF antibody overnight. The amount of specifically bound polyclonal antibody, which when exposed to chromogenic substrate (TMB reagent; Promega), changes color in proportion to the amount of GDNF present in the sample. The color intensity was quantified by measuring the absorbance at 450 nm. GDNF standards, ranging in concentration from 0 to 500 pg/mL were added in parallel wells in the same medium than hippocampal neurons.

[2] = test system: BDNF release by primary hippocampal neurons; assay: BDNF release by primary hippocampal neurons, in situ ELISA; format: cell-based, rat; conditions: 1 μM, 3 days incubation
Description: Hippocampal neurons were plated in 96-well Nunc MaxiSorp surface polystyrene flat-bottom immunoplate precoated with poly-D-lysine during 30 min an anti-BDNF monoclonal antibody overnight at 4° C. at a density of 70,000 cells/well. […] At the end of drug treatment, cells were carefully washed with TBST (20 mM Tris-HCl (pH 7.6), 150 mM NaCl, and 0.05% (vol/vol) Tween 20). The plate was then incubated with the polyclonal anti-human BDNF antibody overnight and BDNF quantified.
Experimental Protocol—In Situ ELISA on Primary Hippocampal Neurons Hippocampal Neuron Culture
Newborn rats (Wistar rats, Janvier) were deeply anesthetized by hypothermia and decapitated. […] Cells were mechanically dissociated by 3 passages through a 10 ml pipette. Cells were then centrifuged at 515×g for 10 min at 4° C. […] Viable cells were counted in a Neubauer cytometer using the trypan blue exclusion test.
Hippocampal neurons were plated in 96-well Nunc MaxiSorp surface polystyrene flat-bottom immunoplate precoated with poly-D-lysine during 30 min (Sigma, Ref: P7886, batch: SLBS8705) an anti-BDNF monoclonal antibody overnight at 4° C. at a density of 70000 cells/well.
At the end of drug treatment, cells were carefully washed with TBST (20 mM Tris-HCl (pH 7.6), 150 mM NaCl, and 0.05% (vol/vol) Tween 20). The plate was then incubated with the polyclonal anti-human BDNF antibody overnight. The amount of specifically bound polyclonal antibody was then detected through the use of the anti-IgY-horseradish peroxidase tertiary antibody, which when exposed to the chromogenic substrate (TMB reagent; Promega), changes color in proportion to the amount of BDNF present in the sample. The color intensity was quantified by measuring the absorbance at 450 nm.

[3] = test system: BDNF release by primary rat astrocytes; assay: BDNF release by primary rat astrocytes, in situ ELISA; format: cell-based; conditions: 1 μM, 5 days incubation
Description: At confluency, astrocytes were plated in 96-well Nunc MaxiSorp surface polystyrene flat-bottom immunoplate precoated with poly-D-lysine during 30 min. and an anti-BDNF monoclonal antibody overnight at 4° C. at a density of 30,000 cells/well. […] At the end of drug treatment, cells were carefully washed with TBST (20 mM Tris-HCl (pH 7.6), 150 mM NaCl, and 0.05% (vol/vol) Tween 20). The plate was then incubated with the polyclonal anti-human BDNF antibody overnight and BDNF quantified. Experimental Protocol-In Situ ELISA on Primary Astrocytes Rat Primary Culture of Astrocytes Rat mixed glial cells were cultured as described by McCarthy et al. Primary rat glial cells were prepared from the cortical of newborn Wistar rats (1 day). […] Medium was changed 3 times per week. At confluency, astrocytes were plated in 96-well Nunc MaxiSorp surface polystyrene flat-bottom immunoplate precoated with poly-D-lysine during 30 min (Sigma, Ref: […], batch: SLBS8705) and an anti-BDNF monoclonal antibody overnight at 4° C. at a density of 30,000 cells/well. (Balkowiec and Katz “Cellular Mechanisms Regulating Activity-Dependent Release of Native Brain-Derived Neurotrophic Factor from Hippocampal Neurons” J. […] At the end of drug treatment, cells were carefully washed with TBST (20 mM Tris-HCl (pH 7.6), 150 mM NaCl, and 0.05% (vol/vol) Tween 20). The plate was then incubated with the polyclonal anti-human BDNF antibody overnight. The amount of specifically bound polyclonal antibody, which when exposed to chromogenic substrate (TMB reagent; Promega), changes color in proportion to the amount of BDNF present in the sample. The color intensity was quantified by measuring the absorbance at 450 nm. BDNF standards, ranging in concentration from 0 to 500 pg/mL were added in parallel wells in the same medium than hippocampal neurons.

[4] = test system: BDNF expression by astrocytes; assay: BDNF expression by astrocytes, qPCR; format: cell-based, rat; conditions: for BDNF expression astrocytes, % increase of control conditions: 25 ug/mL, 5 days incubation
Description: For analysis of BDNF expression by real-time quantitative polymerase chain reaction (qPCR), astrocytes were seeded in 24 well-plates pre-coated with poly-D-lysine. After 1 day of culture, fresh serum free medium containing compounds was added during 5 days at 37° C. At the end of the incubation time total RNA content were extracted and reverse transcription was performed. Expression levels were calculated using the ΔCt method where the expression level of the mRNA of interest is given by 2-ΔCT with ΔCT=CT target mRNA−CT reference mRNA (Gapdh), in the same sample.
Rat Primary Culture of Astrocytes—rat mixed glial cells were cultured as described by McCarthy et al., 1980. Primary rat glial cells were prepared from the cortical of newborn Wistar rats (1 day). Briefly, meninges and blood vessels of the mice cortex were removed and placed in ice-cold medium of Leibovitz (L15; PanBiotech, ref P04-27055, batch 4511117) containing 2% of Penicillin-Streptomycin (PS; PanBiotech, ref P06-07100, batch 2110917) and 1% of bovine serum albumin (BSA; PanBiotech, ref P06-1391100, batch H171006). Tissues were dissociated with 0.25% trypsin-EDTA (PanBiotech, ref P10-023100, batch 8970318) at 37° C. for 10 min. Cells were then submitted to a supplementary incubation of 15 min at 37° C. in presence of deoxyribonuclease I (0.1 mg/ml Panbiotech, ref: P60-37780100, batch: H170706). Cells were then pelleted (5 min at 1200 rpm) and trypsinization was stopped by adding DMEM (Panbiotech, Ref P04-03600, Batch 5181217) supplemented with 10% FCS (Fischer, Ref 10270106, batch 42G2068K), 1 mM of Na/pyruvate (PanBiotech, ref: P04-43100, batch: 3470914) and 2% PS. Cells suspension was mechanically dissociated and filtered through 40 μm diameter nylon meshes (BD Falcon, Ref: 352340). The cells were collected by centrifugation at 1200 rpm/min for 10 min, re-suspended in culture medium and then plated in culture flasks (Dutscher, ref: 690175). Cells were seeded at a density of 1.25×10^5 cells/cm^2 and cultured in 5% CO2 at 37° C. Medium was changed three times per week.
Analysis of BDNF expression by real-time quantitative polymerase chain reaction (PCR): astrocytes were seeded in 24 well-plates pre-coated with poly-D-lysine (Sigma, ref P7886, batch: SLBQ9797V). After 1 day of culture, fresh serum free medium containing compounds was added during 5 days at 37° C. At the end of the incubation time, medium was removed and total RNA content were extracted using kit nucleo spin RNS XS (Macherey Nagel; 20 μL/well). 6 wells/condition were done. RNA concentration was determined using a Nanodrop 2000 spectrophotometer (Life Technologies ThermoFisher Scientific, Villebon sur Yvette, France).
Reverse transcription was performed on 500 ng of RNA using the high capacity RNA-to-cDNA mix (Applied Biotechnologies). qPCR was performed on 12.5 ng of cDNA using the following primers, purchased from Applied Biotechnology.
For qPCR reactions, the kit TaqMan™ Fast Universal PCR Master Mix (2×) was used. The following volumes were used: mix: 10 uL, enzyme: 4 uL, oligo: 1 uL each, cDNA: 5 uL (12,5 ng). For the comparisons between various compounds and concentrations, expression levels were calculated using the ΔCt method where the expression level of the mRNA of interest is given by 2-ΔCT with ΔCT=CT target mRNA−CT reference mRNA (Gapdh), in the same sample. For the cultures treated with GA or the unknown compound, relative expression levels were determined according to the ΔΔCt method where the expression level of the mRNA of interest is given by 2-ΔΔCT where ΔΔCT=ΔCt for treated cultures−ΔCt for untreated cultures.

[5] = modified release (MR) formulation of Compound (I) that reduces QT prolongation; cited from earlier work

In the case of Cc1cccc([C@H](C)c2cnc[nH]2)c1C [Dexmedetomidine, dexmedetomidine, reference compound], the “GDNF release astrocytes, % increase of control conditions” value [1] is reported as 15.8% and the “GDNF release astrocytes, % increase of control conditions” value ([1]; listed as dexmedetomidine) is reported as 15.8%.

With CCCN1CCC(c2cccc(S(C)(=O)=O)c2)CC1 [Pridopidine, pridopidine, reference compound] the “BDNF release hippocampal neurons, % increase of control conditions” value [2] was 18.4%, the “BDNF release hippocampal neurons, % increase of control conditions” value ([2]; listed as pridopidine) was 18.4% and the “BDNF release astrocytes, % increase of control conditions” value [3] was 22.3%. For the same compound, the “BDNF release astrocytes, % increase of control conditions” value ([3]; listed as pridopidine) was 22%.

For glatiramer acetate [reference compound], the “BDNF expression astrocytes, % increase of control conditions” value [4] was 10%, the “BDNF expression astrocytes, % increase of control conditions” value ([4]; listed as glatiramer acetate) was 10% and the “Effect on BDNF expression by astrocytes compared to control condition (statistical)” value ([4]; 25 μg/mL, 5 days, ns p>0.05) was “no effect”.

In the case of O=C1c2ccccc2CN1CC1CCN(CC(O)c2ccc(F)cc2)CC1 (stereo not shown) [BFB-520], the “maximum plasma concentration (Cmax)” value [5] is given as less than 12 ng/mL.
